From article PMC11002875, “Linking triphenylphosphonium cation to a bicyclic hydroquinone improves their antiplatelet effect via the regulation of mitochondrial function” (Redox Biology, 2024)
Read-outs that look alike come from different tables or passages of the source.

Tests used:
Assay type in all cases: cell-based, Human
Washed platelets [1] = experiment: Intraplatelet (cytosolic) ROS levels (DHE); conditions: compounds 1, 5 and 10 μM, 10 min
Experimental: (§1) Human platelet purification. The blood sample was obtained from voluntary donors (10 days without antiplatelet medication) who agreed to participate after signing informed consent (Scientific Ethics Committee of the University of Talca N° 04–2022). Briefly, blood anticoagulated with acid-citrate-dextrose (ACD) was obtained in a 4:1 v/v ratio. The sample was centrifuged for 12 min at 250 g to obtain platelet-rich plasma (PRP). Subsequently, the PRP was centrifuged for 8 min at 900 g to obtain the platelet pellet. The plasma supernatant was removed, and the platelets were resuspended in Tyrodes buffer without calcium plus ACD in a ratio of 5:1 v/v. The platelets were centrifuged once more for 8 min at 900 g and the pellet was resuspended in Tyrodes buffer without calcium. Finally, the platelets were counted (Mindray BC-3000 Plus hematology counter, Japan), adjusted to the desired concentration, and used within 3 h.
Intraplatelet ROS levels. Washed platelets (50 × 10^6 platelets/mL) were labeled with the dihydroethidium (DHE) probe 10 μM and incubated for 20 min at 37 °C protected from light. After, compounds (1, 5, and 10 μM) were added to the platelets and incubated for 10 min at 37 °C. The sample was acquired in the BD Facs Lyric flow cytometer (BD Biosciences, USA). Representative dot plots are available in Supplementary Figs. 18 and 27. As a positive control for ROS, antimycin A 20 μM was used.

Washed platelets [2] = experiment: Cellular cytotoxicity by release of lactate dehydrogenase (LDH); conditions: Supplementary Fig. 1
Experimental: as §1
Cellular cytotoxicity by the release of lactate dehydrogenase (LDH). Washed platelets (200-250 × 10^6 platelets/mL) were incubated with the compounds under study or vehicle for 15 min at 37 °C. Then, the platelets were centrifuged at 900 g for 8 min to collect the supernatant. […] The absorbance was analyzed at 490 nm (Microplate Reader Thermo Scientific Multiskan Go, Finland).

Washed platelets [3] = experiment: Platelet aggregation in washed platelets (aggregometer); conditions: for IC50: Homo sapiens, Platelet
Experimental: as §1
Platelet aggregation. Washed platelets (200-250 × 10^6 platelets/mL) were preincubated with 2 mM CaCl2 and then with the compounds under study for 5 min at 37 °C in the aggregometer (Agg RAM- Helena Biosciences). Aggregation was initiated with the agonists: collagen 2 μg/mL; convulxin 20 ng/mL; TRAP-6 (Thrombin receptor activator peptide 6) 5 μM; PMA (Phorbol myristate acetate) 100 nM or arachidonic acid 250 μg/mL. The aggregation curve was evaluated for 5 min at 37 °C in shaking at 1000 rpm.

Q: What does the source list for `Cc1c(C)c(O)c2c(c1O)C(=O)C(CCCC[P+](c1ccccc1)(c1ccccc1)c1ccccc1)=CC2(C)C.[Br-]` [NP4, (4-(5,8-dihydroxy-4,4,6,7-tetramethyl-1-oxo-1,4-dihydronaphthalen-2-yl)butyl)triphenyl phosphonium bromide]?
A: Cytosolic total ROS levels (Washed platelets [1]): neither NP4 nor NH4 significantly affected; Safe concentrations (LDH release) (Washed platelets [2]): below 10 μM; IC50 (Washed platelets [3]; read-out: IC50 for platelet aggregation, Convulxin): 4.45 ± 0.65 µM; IC50 (Washed platelets [3]; PMA 100 nM, washed platelets, read-out: IC50 for platelet aggregation, PMA): > 20 µM; IC50 (Washed platelets [3]; TRAP-6 5 μM, washed platelets, read-out: IC50 for platelet aggregation, TRAP-6): 7.4 ± 0.82 µM; IC50 (Washed platelets [3]; arachidonic acid 250 μg/mL, washed platelets, read-out: IC50 for platelet aggregation, Arachidonic Acid): > 20 µM; IC50 (Washed platelets [3]; collagen 2 μg/mL, washed platelets, read-out: IC50 for platelet aggregation, Collagen): 2.62 ± 0.91 µM; Effect on platelet aggregation vs vehicle (Washed platelets [3]; all tested concentrations, arachidonic acid 250 μg/mL): None of the NP4 concentrations showed any effect; Effect on platelet aggregation vs vehicle (Washed platelets [3]; compound 2 μM, collagen 2 μg/mL): significant effect; Effect on platelet aggregation vs vehicle (Washed platelets [3]; compound 5 μM, Convulxin 20 ng/mL): had an effect; Effect on platelet aggregation vs vehicle (Washed platelets [3]; compound 5 μM, TRAP-6 5 μM): had an effect; Effect on platelet aggregation vs vehicle (Washed platelets [3]; compound 5 μM, collagen 2 μg/mL): had an effect; Effect on platelet aggregation vs vehicle (Washed platelets [3]; compound 10 μM, Convulxin 20 ng/mL): significantly decreases; Effect on platelet aggregation vs vehicle (Washed platelets [3]; compound 10 μM, PMA 100 nM): significantly decreases; Effect on platelet aggregation vs vehicle (Washed platelets [3]; compound 10 μM, TRAP-6 5 μM): significantly decreases; Effect on platelet aggregation vs vehicle (Washed platelets [3]; compound 10 μM, collagen 2 μg/mL): significantly decreases
